Data: patent publication US10669240B2, “5-substituted indazole-3-carboxamides and preparation and use thereof” (Samumed, LLC, priority 2014, dated 2020)

Tests used:
DYRK1A = DYRK1A (Homo sapiens (Human), UniProt Q13627); assay: DYRK1A activity Tau assay: pSer396 Tau in SH-SY5Y cells by ELISA / western blot; type: cell-based; settings: overnight (16-18 h) exposure
Excerpt: In another example, in vitro assays for DYRK1A biological activity may be used, e.g. regulation of microtubule-associated protein tau (MAPT/Tau) phosphorylation in neuronal cell line such as the human SH-SY5Y neuroblastoma cell line. Assays for DYRK1a-regulated level of phosphorylation can include monitoring levels of basal pSer396 Tau, which can be measured, for example, by serial dilutions of a candidate inhibitor composition using a ten micromolar top concentration and detected by ELISA or Western Blotting. An exemplary assay for DYRK-1a-regulated phosphorylation uses the SH-SY5Y cells cultured in a 96 well plate format for a period of time sufficient to stabilize microtubules and Tau phosphorylation, usually at least 2 days, then treated with a 1/3 serial dilution of compounds overnight and lysed. The cell lysate is resolved by SDS PAGE, then transferred to nitrocellulose and probed with an antibody specific for pSer396 Tau.
In a further example, the activity of a candidate compound can be measured by ELISA by adding the lysate mentioned above onto total Tau-coated plates and detected with a specific pSer396 antibody.

[1] = test system: Wnt activity (Wnt-responsive SP5 promoter luciferase reporter in SW480 cells); assay: Wnt activity reporter assay: SW480 cells with SP5 promoter-driven firefly luciferase; type: cell-based; settings: Homo sapiens, 24 h after compound addition, read-out: Wnt inhibition
Excerpt: The above synthesized compounds were screened using the assay procedure for Wnt activity described below.
Reporter cell lines were generated by stably transducing cells of cancer cell lines (e.g., colon cancer) with a lentiviral construct that include a Wnt-responsive promoter driving expression of the firefly luciferase gene.
Lentiviral constructs were made in which the SP5 promoter, a promoter having eight TCF/LEF binding sites derived from the SP5 promoter, was linked upstream of the firefly luciferase gene. The lentiviral constructs included a hygromycin resistance gene as a selectable marker. The SP5 promoter construct was used to transduce SW480 cells, a colon cancer cell line having a mutated APC gene that generates a truncated APC protein, leading to de-regulated accumulation of β-catenin.
Cultured SW480 cells bearing a reporter construct were distributed at approximately 10,000 cells per well into 384 well multiwell plates. Compounds were then added to the wells in half-log dilutions using a three micromolar top concentration. A series of control wells for each cell type received only buffer and compound solvent. Twenty-four hours after the addition of compound, reporter activity for luciferases was assayed, for example, by addition of the BrightGlo luminescence reagent (Promega) and the Victor3 plate reader (Perkin Elmer). Readings were normalized to DMSO only treated cells, and normalized activities were then used for the IC50 calculations.

Structure (SMILES)	EC50 (DYRK1A)	IC50 [1]
CN1CCC(NC(=O)c2n[nH]c3ccc(-c4cncc(CN5CCC5)c4)cc23)CC1 [Compound 8, 5-(5-(Azetidin-1-ylmethyl)pyridin-3-yl)-N-(1-methylpiperidin-4-yl)-1H-indazole-3-carboxamide]	53 nM	6290 nM
CN1CCN(c2ccc(NC(=O)c3n[nH]c4ccc(-c5cncc(NC(=O)c6c(F)cccc6F)c5)cc34)cn2)CC1 [Compound 49, 5-(5-(2,6-Difluorobenzamido)pyridin-3-yl)-N-(6-(4-methylpiperazin-1-yl)pyridin-3-yl)-1H-indazole-3-carboxamide]	–	226 nM
O=C(NC1CCN(CC2CC2)CC1)c1n[nH]c2ccc(-c3cncc(Cl)c3)cc12 [Compound 1313, 5-(5-Chloropyridin-3-yl)-N-(1-(cyclopropylmethyl)piperidin-4-yl)-1H-indazole-3-carboxamide]	33 nM	1800 nM
NC1CN(c2cncc(-c3ccc4[nH]nc(C(=O)Nc5cncc(-c6cccc(F)c6)c5)c4c3)n2)C1 [Compound 1344, 5-(6-(3-Aminoazetidin-1-yl)pyrazin-2-yl)-N-(5-(3-fluorophenyl)pyridin-3-yl)-1H-indazole-3-carboxamide]	15 nM	2930 nM
O=C(NCCN1CCOCC1)c1n[nH]c2ccc(-c3cccnc3)cc12 [Compound 1267, N-(2-Morpholinoethyl)-5-(pyridin-3-yl)-1H-indazole-3-carboxamide]	5 nM	1500 nM
COc1ccc(NC(=O)c2n[nH]c3ccc(-c4cncc(N5CC(N)C5)n4)cc23)cn1 [Compound 1334, 5-(6-(3-Aminoazetidin-1-yl)pyrazin-2-yl)-N-(6-methoxypyridin-3-yl)-1H-indazole-3-carboxamide]	2 nM	1500 nM
CC(C)OCCCNC(=O)c1n[nH]c2ccc(-c3cccc(F)c3F)cc12 [Compound 1264, 5-(2,3-Difluorophenyl)-N-(3-isopropoxypropyl)-1H-indazole-3-carboxamide]	263 nM	2100 nM
O=C(NC1CCNCC1)c1n[nH]c2ccc(-c3cccnc3)cc12 [Compound 3, N-(Piperidin-4-yl)-5-(pyridin-3-yl)-1H-indazole-3-carboxamide]	28 nM	6440 nM
O=C(NCCN1CCCCC1)c1n[nH]c2ccc(-c3cccnc3)cc12 [Compound 1265, N-(2-(Piperidin-1-yl)ethyl)-5-(pyridin-3-yl)-1H-indazole-3-carboxamide]	17 nM	1200 nM
O=C(NCCN1CCCC1)c1n[nH]c2ccc(-c3cccc(F)c3F)cc12 [Compound 1166, 5-(2,3-Difluorophenyl)-N-(2-(pyrrolidin-1-yl)ethyl)-1H-indazole-3-carboxamide]	79 nM	2400 nM
O=C(Nc1cccnc1)c1n[nH]c2ccc(-c3cccc(F)c3F)cc12 [Compound 96, 5-(2,3-Difluorophenyl)-N-(pyridin-3-yl)-1H-indazole-3-carboxamide]	134 nM	4670 nM
CC(C)(C)N1CCC(NC(=O)c2n[nH]c3ccc(-c4cccnc4)cc23)CC1 [Compound 291, N-(1-(tert-Butyl)piperidin-4-yl)-5-(pyridin-3-yl)-1H-indazole-3-carboxamide]	21 nM	1010 nM
O=C(NC1CCC(F)(F)CC1)c1n[nH]c2ccc(-c3cccnc3)cc12 [Compound 1283, N-(4,4-Difluorocyclohexyl)-5-(pyridin-3-yl)-1H-indazole-3-carboxamide]	2 nM	1300 nM
CN1CCC2(CC1)CC(NC(=O)c1n[nH]c3ccc(-c4cccc(F)c4F)cc13)C2 [Compound 1278, 5-(2,3-Difluorophenyl)-N-(7-methyl-7-azaspiro[3.5]nonan-2-yl)-1H-indazole-3-carboxamide]	14 nM	5500 nM
CN(C)CCNC(=O)c1n[nH]c2ccc(-c3cccnc3)cc12 [Compound 1259, N-(2-(Dimethylamino)ethyl)-5-(pyridin-3-yl)-1H-indazole-3-carboxamide]	20 nM	1800 nM
O=C(Nc1ccc(OC(CO)CO)nc1)c1n[nH]c2ccc(-c3cncc(CN4CCCCC4)c3)cc12 [Compound 70, N-(6-((1,3-Dihydroxypropan-2-yl)oxy)pyridin-3-yl)-5-(5-(piperidin-1-ylmethyl)pyridin-3-yl)-1H-indazole-3-carboxamide]	–	500 nM
Cc1ccc(-c2ccc3[nH]nc(C(=O)NCCCOC(C)C)c3c2)cn1 [Compound 1262, N-(3-Isopropoxypropyl)-5-(6-methylpyridin-3-yl)-1H-indazole-3-carboxamide]	60 nM	1800 nM
Cc1cc2[nH]nc(C(=O)Nc3ccc(CN4CCCC4)cc3)c2cc1-c1cccnc1 [Compound 1331, 6-Methyl-5-(pyridin-3-yl)-N-(4-(pyrrolidin-1-ylmethyl)phenyl)-1H-indazole-3-carboxamide]	17 nM	1400 nM
O=C(Nc1ccc(N2CC(CO)(CO)C2)nc1)c1n[nH]c2ccc(-c3cncc(CN4CCCCC4)c3)cc12 [Compound 72, N-(6-(3,3-Bis(hydroxymethyl)azetidin-1-yl)pyridin-3-yl)-5-(5-(piperidin-1-ylmethyl)pyridin-3-yl)-1H-indazole-3-carboxamide]	–	1500 nM
O=C(Nc1cccnc1)c1n[nH]c2ccc(-c3cncc(CN4CCS(=O)(=O)CC4)c3)cc12 [Compound 86, 5-(5-((1,1-Dioxidothiomorpholino)methyl)pyridin-3-yl)-N-(pyridin-3-yl)-1H-indazole-3-carboxamide]	–	210 nM
CN1CCN(c2ccc(NC(=O)c3n[nH]c4ccc(-c5cncc(NC(=O)c6ccc(F)cc6F)c5)cc34)cn2)CC1 [Compound 47, 5-(5-(2,4-Difluorobenzamido)pyridin-3-yl)-N-(6-(4-methylpiperazin-1-yl)pyridin-3-yl)-1H-indazole-3-carboxamide]	–	333 nM
O=C(Nc1cccnc1)c1n[nH]c2ccc(-c3cncc(CN4CC(CO)(CO)C4)c3)cc12 [Compound 50, 5-(5-((3,3-Bis(hydroxymethyl)azetidin-1-yl)methyl)pyridin-3-yl)-N-(pyridin-3-yl)-1H-indazole-3-carboxamide]	–	10000 nM
CC(C)OCCCNC(=O)c1n[nH]c2ccc(-c3cncc(F)c3)cc12 [Compound 1263, 5-(5-Fluoropyridin-3-yl)-N-(3-isopropoxypropyl)-1H-indazole-3-carboxamide]	–	1400 nM
[2H]C([2H])([2H])Oc1ccc(NC(=O)c2n[nH]c3ccc(-c4cncc(C([2H])([2H])N5CCCCC5)c4)cc23)cn1 [Compound 69, N-(6-(methoxy-d3)pyridin-3-yl)-5-(5-(piperidin-1-ylmethyl-d2)pyridin-3-yl)-1H-indazole-3-carboxamide]	–	45 nM
O=C(Nc1cnccn1)c1n[nH]c2ccc(-c3cncc(CN4CCCCCC4)c3)cc12 [Compound 88, 5-(5-(Azepan-1-ylmethyl)pyridin-3-yl)-N-(pyrazin-2-yl)-1H-indazole-3-carboxamide]	–	430 nM
[2H]C([2H])([2H])Oc1ccc(NC(=O)c2n[nH]c3ccc(-c4cncc(CN5CCCCC5)c4)cc23)cn1 [Compound 68, N-(6-(Methoxy-d3)pyridin-3-yl)-5-(5-(piperidin-1-ylmethyl)pyridin-3-yl)-1H-indazole-3-carboxamide]	–	57 nM
